# Patent publication US20230331690A1, “THC DERIVATIVES, ORAL DOSAGE FORMS COMPRISING SAME, USES THEREOF FOR TREATING DISEASES AND DISORDERS AND SYNTHESIS THEREOF” (BAR-ILAN UNIVERSITY, priority 2020, published 2023)
# “And” between values parts separate entries of the source, which are not always exact repeats. Equal values may be shown once. Read-outs that look alike come from different tables or passages of the source.
# Key:
# [1] = Pharmacokinetics, liver samples (Example 17); type: in vivo, mice; conditions: for concentration at 24 h / concentration at 5 h: mouse, liver; for concentration at 24 h: ip; for concentration at 5 h: po
# [2] = Persistence over time, blood samples (Example 18); type: in vivo, mice
# Description: (§1) Blood samples from each mouse were collected at each time point for the pharmacokinetics tests. For 6 h after administrating of all tested drugs, and after testing their WRL on the hot plate, half the mice (n=3) of each group were sacrificed, and the liver and brain of each animal were taken for pharmacokinetics tests. From the remaining mice, blood samples were acquired at 12 h after administration for pharmacokinetics tests. At 24 h after drug administration, and after checking the WRL again, second half of each group of mice were sacrificed, and the liver and brain of each animal were taken for pharmacokinetics tests.
# [3] = Body temperature by rectal thermometer (hypothermia)
# mice = assay: Hot plate assay, withdrawal reflex latency (WRL); type: in vivo; conditions: for Hot plate Time: per animal
# [4] = Persistence over time, liver samples postmortem (Example 18); type: in vivo, mice; conditions: mouse, liver, oral, read-out: Average results for 3 mice (Table 13, liver); for concentration at 6 h: died at 6 h; for concentration at 24 h: died at 24 h, number in brackets = mice with a value
# Description: as §1
# (§2) All the results of the brain and liver samples, which were taken postmortem 6 h or 24 h after administration (n=3) are summarized in Tables 12-13.
# [5] = Pharmacokinetics, blood samples (Example 17); conditions: for concentration at 0.5 h: mouse, blood, ip, Component in the blood, label = analyte
# Description: The pharmacokinetics of 9-CD3-(8-D2)-THC compared to natural THC was evaluated using both intraperitoneal i.p. injection and an oral gavage administration for each material. The mice were divided into four groups containing 6 mice (24 mice total). For each group of mice, a blood sample was withdrawn at baseline (t=0), and half-hour intervals (t=0.5, 2 and 5 h) after administration of the drug. Three mice, half of each group, were euthanized with CO2 after 5 h and their organs (brain and liver) were collected. From the second half of each group, another blood sample was withdrawn 24 h after administration, and then these animals were euthanized and the brain and liver were collected for analysis.
# [6] = Persistence over time, brain samples postmortem (Example 18); type: in vivo, mice
# Description: as §1, §2
# [7] = 8 mg/Kg oral, t = 6 h, listed as THC-d5
smiles,measurement,setting,value
[2H]C([2H])([2H])C1=C[C@H]2c3c(O)cc(CCCCC)cc3OC(C)(C)[C@@H]2CC1([2H])[2H] [9-CD3-(8-D2)-THC],"average liver concentration, times more than THC",[1]; 5 h after oral gavage administration,1.59 times
same,"average liver concentration, times more than THC",[1]; 24 h after i.p. administration,1.40 times
same,concentration at 24 h,"[1]; 24 h after i.p. administration, n=3, read-out: average liver concentration",10.7 ng/g
same,concentration at 24 h,"[1]; 24 h after i.p. injection of THC or THC-d5, label = analyte, n=3, read-out: Component in the liver, Average",10.7 ng/mL
same,concentration at 24 h,"[1]; 24 h after i.p. injection of THC or THC-d5, label = analyte, read-out: Component in the liver, mouse 1",12.4 ng/mL
same,concentration at 24 h,"[1]; 24 h after i.p. injection of THC or THC-d5, label = analyte, read-out: Component in the liver, mouse 2",15 ng/mL
same,concentration at 24 h,"[1]; 24 h after i.p. injection of THC or THC-d5, label = analyte, read-out: Component in the liver, mouse 3",4.64 ng/mL
same,concentration at 5 h,"[1]; 5 h after oral gavage administration of THC or THC-d5, label = analyte, n=3, read-out: Component in the liver, Average",5.99 ng/mL
same,concentration at 5 h,"[1]; 5 h after oral gavage administration of THC or THC-d5, label = analyte, read-out: Component in the liver, mouse 1",5.57 ng/mL
same,concentration at 5 h,"[1]; 5 h after oral gavage administration of THC or THC-d5, label = analyte, read-out: Component in the liver, mouse 2",6.28 ng/mL
same,concentration at 5 h,"[1]; 5 h after oral gavage administration of THC or THC-d5, label = analyte, read-out: Component in the liver, mouse 3",6.13 ng/mL
same,concentration at 5 h,"[1]; 5 h after oral gavage administration, n=3, read-out: average liver concentration",5.99 ng/g
same,"Average results, blood samples","[2]; 4 mg/kg administration, Time 3 h, label = analyte",1.44 (4/4) ng/mL
same,"Average results, blood samples","[2]; 8 mg/kg administration, Time 12 h (3 mice), label = analyte",0.15 (1/1) ng/mL
same,metabolic stability compared to THC,"[2]; conclusion from mouse blood, brain and liver samples",better metabolic stability than THC
same,concentration at 0.5 h,"[2]; mouse, blood, oral, 4 mg/kg administration of THC or THC-d5, Time 0.5 h, label = analyte",10.4 ng/mL
same,concentration at 0.5 h,"[2]; mouse, blood, oral, 8 mg/kg administration of THC or THC-d5, Time 0.5 h, label = analyte",22.5 ng/mL
same,concentration at 3 h,"[2]; mouse, blood, oral, 8 mg/kg administration, Time 3 h, label = analyte",7.27 ng/mL
same,concentration at 6 h,"[2]; mouse, blood, oral, 8 mg/kg administration, Time 6 h, label = analyte",1.81 ng/mL
same,time of strongest effect on body temperature after drug administration,[3]; high concentration of 8 mg/kg oral,3 h
same,hypothermia effect (body temperature),[3]; medium concentration of 4 mg/kg oral,very clear hypothermia effect
same,"Body temperature, Avg. change compared to t = 0, at t = 3 h","[3]; mice, avg. of 6 mice, 8 mg/kg (groups C+D), t = 3 h after administration",−2.6 °C
same,Animal status in the Temp. column at t = 24 h,"[3]; mice, group D, 8 mg/kg, single animal, t = 24 h",Died
same,Hot plate Avg. 6 mice,"mice; 2 mg/Kg oral, t = 0.5 h",9.52 s
same,Hot plate Time,"mice; 2 mg/Kg oral, t = 0.5 h, listed as THC-d5",9.4 s and 9.3 s and 8.9 s and 10.9 s and 12.0 s and 6.6 s
same,Hot plate Avg. 6 mice,"mice; 2 mg/Kg oral, t = 3 h",10.97 s
same,Hot plate Time,"mice; 2 mg/Kg oral, t = 3 h, listed as THC-d5",7.2 s and 12.1 s and 8.5 s and 19.3 s and 13.1 s and 5.6 s
same,Hot plate Avg. 6 mice,"mice; 2 mg/Kg oral, t = 6 h",10.07 s
same,Hot plate Time,"mice; 2 mg/Kg oral, t = 6 h, listed as THC-d5",9.3 s and 14.5 s and 4.5 s and 15.8 s and 8.9 s and 7.4 s
same,Hot plate Avg. 3 mice,"mice; 2 mg/Kg oral, t = 24 h",8.3 s
same,Hot plate Time,"mice; 2 mg/Kg oral, t = 24 h, listed as THC-d5",7.9 s and 9.5 s and 7.5 s
same,increase in the WRL compared to baseline,"mice; 2 mg/kg, 0.5 h",3%
same,change in average WRL compared to baseline,"mice; 2 mg/kg, 3 h",+19%
same,change in average WRL compared to baseline,"mice; 2 mg/kg, 6 h",+9%
same,Hot plate Avg. 6 mice,"mice; 4 mg/Kg oral, t = 0.5 h",14.03 s
same,Hot plate Time,"mice; 4 mg/Kg oral, t = 0.5 h, listed as THC-d5",19.2 s and 10.3 s and 13.0 s and 9.5 s and 15.8 s and 16.4 s
same,Hot plate Avg. 6 mice,"mice; 4 mg/Kg oral, t = 3 h",13.77 s
same,Hot plate Time,"mice; 4 mg/Kg oral, t = 3 h, listed as THC-d5",17.5 s and 11.8 s and 12.1 s and 9.2 s and 12.5 s and 19.5 s
same,Hot plate Avg. 6 mice,"mice; 4 mg/Kg oral, t = 6 h",15.38 s
same,Hot plate Time,"mice; 4 mg/Kg oral, t = 6 h, listed as THC-d5",8.7 s and 19.9 s and 12.1 s and 8.3 s and 22.5 s and 20.8 s
same,Hot plate Avg. 3 mice,"mice; 4 mg/Kg oral, t = 24 h",14.27 s
same,Hot plate Time,"mice; 4 mg/Kg oral, t = 24 h, listed as THC-d5",5.2 s and 21.5 s and 16.1 s
same,increase in the WRL compared to baseline,"mice; 4 mg/kg, 0.5 h",68%
same,change in average WRL compared to baseline,"mice; 4 mg/kg, 3 h",+65%
same,change in average WRL compared to baseline,"mice; 4 mg/kg, 6 h",+85%
same,Hot plate Avg. 6 mice,"mice; 8 mg/Kg oral, t = 0.5 h",15.42 s
same,Hot plate Time,"mice; 8 mg/Kg oral, t = 0.5 h, cut-off 30 s, listed as THC-d5",19.9 s and 24.5 s and 11.1 s and 17.5 s and 10.1 s and 9.4 s
same,Hot plate Avg. 6 mice,"mice; 8 mg/Kg oral, t = 3 h",22.1 s
same,Hot plate Time,"mice; 8 mg/Kg oral, t = 3 h, cut-off 30 s, listed as THC-d5",30.0 sec. (3×) and 6.0 sec. and 26.2 sec. and 10.4 sec.
same,Hot plate Avg. 6 mice,"mice; 8 mg/Kg oral, t = 3 h, listed as THC-d5",22.10 s
same,Hot plate Avg. 6 mice,"mice; 8 mg/Kg oral, t = 6 h",8.4 s
same,Hot plate Time,mice; [7],6.4 s and 9.8 s and 11.5 s and 7.1 s and 13.4 s and 2.3 s
same,Hot plate Avg. 6 mice,mice; [7],8.42 s
same,Hot plate Avg. 3 mice,"mice; 8 mg/Kg oral, t = 24 h",20.8 s
same,animal outcome printed in the hot plate Time column,"mice; 8 mg/Kg oral, t = 24 h, animal 20",Died
same,Hot plate Time,"mice; 8 mg/Kg oral, t = 24 h, cut-off 30 s, listed as THC-d5",30.0 s and 11.2 s
same,Hot plate Avg. 3 mice,"mice; 8 mg/Kg oral, t = 24 h, listed as THC-d5",20.6 s
same,analgesic effect compared to natural THC and morphine,"mice; 8 mg/kg oral, up to 24 h after administration",stronger and longer lasting analgesic effect
same,average increase in WRL compared to baseline (t=0),"mice; 8 mg/kg, 0.5 h",67.6%
same,change in average WRL compared to t=0 at baseline,"mice; 8 mg/kg, 3 h",140%
same,concentration at 6 h,[4]; 2 mg/kg administered,3.31 ng/g
same,concentration at 24 h,[4]; 2 mg/kg administered,0.75 ng/g
same,concentration at 6 h,[4]; 4 mg/kg administered,16.1 ng/g
same,concentration at 6 h,[4]; 8 mg/kg administered,57.8 ng/g
same,concentration at 24 h,[4]; 8 mg/kg administered,1.64 ng/g
same,"average blood concentration, times higher than THC",[5]; 0.5 h after i.p. administration,1.87 times
same,concentration at 0.5 h,"[5]; Average, 0.5 h after i.p. injection of THC or THC-d5, n=6 (THC-d5 n=5)",110 ng/mL
same,concentration at 0.5 h,"[5]; mouse 1, 0.5 h after i.p. injection of THC or THC-d5",183 ng/mL
same,concentration at 0.5 h,"[5]; mouse 2, 0.5 h after i.p. injection of THC or THC-d5",93.8 ng/mL
same,concentration at 0.5 h,"[5]; mouse 4, 0.5 h after i.p. injection of THC or THC-d5",141 ng/mL
same,concentration at 0.5 h,"[5]; mouse 5, 0.5 h after i.p. injection of THC or THC-d5",74.1 ng/mL
same,concentration at 0.5 h,"[5]; mouse 6, 0.5 h after i.p. injection of THC or THC-d5",58.9 ng/mL
same,presence in the brain,"[6]; 24 h after administration, highest concentration of 8 mg/kg",evidence for the synthetic material in the brain
same,concentration at 6 h,"[6]; mouse, brain, oral, 8 mg/kg administered, died at 6 h, number in brackets = mice with a value, read-out: Average results for 3 mice - brain samples",48 ng/g
